Data as given in publication PMC6547740, “Potent and specific MTH1 inhibitors targeting gastric cancer” (Cell Death & Disease, 2019).

Key:
MTH1 [1] = molecular target: T1, MTH1 (Homo sapiens, UniProt P36639); assay: MTH1 recombinant protein activity / inhibitor screening (malachite green); assay type: biochemical; set-up: His-tag; made in house; host or cells: E. coli BL21(DE3); conditions: 5 nM recombinant MTH1, dGTP substrate, absorbance 630 nm; read-out: IC50 (MTH1 inhibition)
Description: On the basis of the ability of MTH1 in converting dGTP to dGMP and pyrophosphate, and the latter can then be hydrolyzed to […] by inorganic pyrophosphatase, the MTH1 activity was designed to measure the product of […], after its reaction with malachite green and ammonium molybdate(Fig. 2l), the green associated complex was measured at 630 nm by PerkinElmer Envision microplate reader.
Firstly, the assay buffer (100 mM Tris-acetate at pH 8.0, 40 mM NaCl, 10 mM Mg-acetate, 0.005% Tween 20 and 1 mM DTT) was added into a 96-well plate. Then, 5 nM recombinant human MTH1, […] dGTP and 0.2U/ml […] were added in sequence. After 60 min reaction, the mixture of 0.45 mg/mL malachite green and 4.2% ammonium molybdate in proportion of 3:1 were added. Then, the plates were incubated and shaken at room temperature for another 60 min. The absorbance was measured at 630 nm using the PerkinElmer Envision micro plate reader.

MUTYH = molecular target: T2, MUTYH (Homo sapiens, UniProt Q9UIF7); assay: Cellular thermal shift assay (CETSA), MUTYH; assay type: binding; conditions: MGC-803 cells, 50 µM compound, heated 10 min from 43 to 61 °C
T2 construct: endogenous in cells; host or cells: MGC-803 (human gastric cancer cell line)
T2 sequence (Q9UIF7 whole entry): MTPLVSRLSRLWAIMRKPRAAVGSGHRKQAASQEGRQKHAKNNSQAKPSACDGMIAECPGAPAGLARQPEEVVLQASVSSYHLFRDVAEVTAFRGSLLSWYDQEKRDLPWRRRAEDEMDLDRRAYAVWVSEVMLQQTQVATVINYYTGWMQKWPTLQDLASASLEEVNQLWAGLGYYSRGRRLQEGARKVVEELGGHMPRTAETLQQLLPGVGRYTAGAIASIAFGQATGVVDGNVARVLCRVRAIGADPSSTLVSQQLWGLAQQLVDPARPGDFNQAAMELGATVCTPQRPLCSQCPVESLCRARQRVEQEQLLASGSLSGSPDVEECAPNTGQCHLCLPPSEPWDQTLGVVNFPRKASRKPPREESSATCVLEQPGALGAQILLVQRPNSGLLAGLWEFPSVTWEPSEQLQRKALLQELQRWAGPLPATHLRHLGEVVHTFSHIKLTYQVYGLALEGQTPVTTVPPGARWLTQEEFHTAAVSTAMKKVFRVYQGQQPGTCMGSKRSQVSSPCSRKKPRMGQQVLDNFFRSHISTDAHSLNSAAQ
Description: (§1) Cellular thermal shift assay (CETSA), also known as the target engagement assay was one-way to detect the intracellular interaction ability of compounds with its specific target. Firstly, cells were seeded into T75 culture flasks and cultured overnight. Then, the cells were treated with cell media containing 1‰ DMSO as blank control and candidate compounds for 3–5 h. Next, the cells were collected by centrifugation and resuspended by PBS, then the cells were aliquoted into 7 PCR tubes and heated using PCR instrument for 10 min from 43 to 61 °C. After that, cells were lysed using liquid nitrogen and three repeated cycles of freeze-thawing. Then, samples were centrifuged at 12,000 × g for 20 min at 4 °C. Supernatants were denatured at 100 °C for 10 min and kept at −20 °C until Western Blot analysis.

OGG1 = molecular target: T3, OGG1 (Homo sapiens, UniProt O15527); assay: Cellular thermal shift assay (CETSA), OGG1; assay type: binding; conditions: MGC-803 cells, 50 µM compound, heated 10 min from 43 to 61 °C
T3 construct: endogenous in cells; host or cells: MGC-803 (human gastric cancer cell line)
T3 sequence (O15527 whole entry): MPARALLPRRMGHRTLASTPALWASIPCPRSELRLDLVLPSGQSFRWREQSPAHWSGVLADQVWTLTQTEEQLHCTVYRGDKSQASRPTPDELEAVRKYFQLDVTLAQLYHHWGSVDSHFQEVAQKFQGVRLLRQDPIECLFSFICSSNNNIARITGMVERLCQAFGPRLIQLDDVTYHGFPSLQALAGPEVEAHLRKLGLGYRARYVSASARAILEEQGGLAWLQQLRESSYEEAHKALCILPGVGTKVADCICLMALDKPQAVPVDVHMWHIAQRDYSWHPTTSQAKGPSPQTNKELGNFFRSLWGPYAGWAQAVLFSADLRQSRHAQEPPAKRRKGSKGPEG
Description: as §1

MTH1 [2] = molecular target: T1, MTH1; assay: Cellular thermal shift assay (CETSA), MTH1; assay type: binding; set-up: endogenous in cells; host or cells: MGC-803 (human gastric cancer cell line); conditions: MGC-803 cells, 50 µM compound, heated 10 min from 43 to 61 °C, western blot
Description: as §1

GES-1 cells = assay: Colony formation assay, GES-1; assay type: cell-based, human; conditions: GES-1 gastric normal cells, 7 days treatment
Description: The day before treatment, cells were seeded into six-well plates at a concentration of 1 × 10^3 cells per well, and then the media were replaced with fresh media containing serial concentrations of candidate compounds. After 7 days of treatment, the cells were fixed with 75% ethanol, stained with 0.1% crystal violet solution and captured by the microscopy (Leica). After that, the crystal violet crystals were dissolved by adding methanol. The absorbance at 595 nm was measured by a BioTek micro plate reader. In the end, the data were analyzed using the GraphPad Prism 5 software.

SGC-7901 cells = assay: MTT cell viability, SGC-7901; assay type: cell-based; conditions: Homo sapiens, gastric cancer cell line, 72 h
Description: (§2) The cell viability was determined by 3-(4,5-dimethylthiazol-2-yl)-2,5-diphenyltetrazolium bromide (MTT) assay, according to the manufacturer’s instructions. 1 day before treatment, cells were seeded into 96-well plates at a concentration of 2–5 × 10^3 cells per well, followed by treatment with fresh medium containing serial dilutions of candidate compounds for 48 or 72 h, 20 μL of MTT solution (5 mg/mL in PBS) was then added to each well. After treatment, the plates were incubated at 37 °C for another 4 h. Subsequently, the MTT solution was removed and 150 μL of DMSO was added to each well for 10 min, and then the plates were shaken to dissolve the dark blue crystal (formazan), the absorbance was detected at 570 nm using a BioTek microplate reader. The data were analyzed using SPSS 20 software.

L02 cells = assay: MTT cell viability, L02; assay type: cell-based; conditions: Homo sapiens, normal liver cell line, 72 h
Description: as §2

MGC-803 cells = assay: Western blot of DNA damage response markers, MGC-803; assay type: cell-based, human; conditions: MGC-803, 1-12 µM 48 h or 12 µM 12-48 h, dose and time-dependently, vs DMSO
Description: MGC-803, HGC-27 and GES-1 cells were seeded into 100mm^2 plastic dishes(1 × 10^5 cells/well) and incubated overnight prior to the addition of compound MI-743 at 1, 2, 4, 8 and 12 µM for 48 h or compound MI-743 at 12 µM for 12, 24, 36 and 48 h, respectively. After treatment, the cells were harvested and lysed with RIPA cell lysis buffer, containing protease inhibitor cocktail. Then, the cells were centrifuged at 12,000 × g for 20 min at 4 °C. The supernatant were collected and the concentration was determined by a Bicinchoninic Acid (BCA) Protein Assay kit, denatured at 100 °C for 10 min, separated by SDS−PAGE and transferred to 0.22 μm nitrocellulose membranes. After blocking by PBS containing 5% skim milk for 2 h at room temperature, the membranes were probed with the appropriate primary antibodies (1:500~1:1000) at 4 °C overnight, followed by the treatment of horseradish-peroxidase-conjugated secondary antibody (1:10000) at room temperature for 2 h. Subsequently, the membranes were washed with PBST, examined by enhanced chemiluminescence and the data was determined using Image J software.

TE-1 cells = assay: MTT cell viability, TE-1; assay type: cell-based; conditions: Homo sapiens, 72 h
Description: as §2

[3] = system: MGC-803 cells-derived xenograft; assay: MGC-803 cells-derived xenograft model; assay type: in vivo, BALB/c nude mice; set-up: average tumor volumes in comparison with oil treatment group: scale not given here; conditions: 40 mg/kg, gavage once a day for 25 days
Description: All animal experiments were conducted according to the guidelines of the Institutional Animal Care and Use Committee of Zhengzhou University. Four or five-week-old female BALB/c nude mice, weighing 18–21 g were purchased from Hunan Slack Scene of Laboratory Animal Company, LTD (Hunan, China). They received abundant food and water and were housed in a laminar flow under sterilized condition. 200 µL MGC-803 cells at the concentration of 5 × 10^7/mL were injected into the right scapular region of the mice. When most of the tumor volumes reached 100 mm^3, mice were randomly divided into oil (solvent) group and MI-743(40 mg/kg) treatment group. Then, they received gavage daily for 25 days. The body weight was weighed every 2 days and the tumor volumes were measured every 4 days. At the 25th day, the tumors were surgically removed and weighed. The tumor size was determined by vernier caliper measurements and the tumor and major organs were fixed in 4% buffered paraformaldehyde and paraffin-embedded for hematoxylin and eosin (HE) staining, immunohistochemistry (IHC) and TUNEL assay.

SMILES: C#CCSc1nc(NNC(N)=S)c(C#N)c(-c2ccc3oc(=O)ccc3c2)n1 [MI-743, 2-(5-cyano-6-(2-oxo-2H-chromen-6-yl)-2-(prop-2-yn-1-ylthio)pyrimidin-4-yl)hydrazine-1-carbothioamide]
- IC50 (MTH1 [1]): 0.0914 ± 0.00145 µM
- temperature at which MUTYH became unstable (MUTYH): 49 °C
- temperature at which OGG1 became unstable (OGG1): 49 °C
- incubation temperature until which MTH1 was stable (MTH1 [2]): 61 °C
- colony formation (GES-1 cells): no obviously inhibitory effect
- IC50 (SGC-7901 cells): 10.4 ± 1.01 µM
- IC50 (L02 cells): 17.3 ± 1.23 µM
- expression levels of p53pS15, ATMpS1981 and p21 (MGC-803 cells): significantly increased
- IC50 (TE-1 cells): 12.8 ± 1.07 µM
- average tumor volumes in comparison with oil treatment group [3]: 33.54%
- expression levels of ATMpS1981 and 8-oxo-dG in tumor tissue (immunohistochemistry) ([3]; vs oil group): sharply increased
